Source: patent US11938189B2, “Compositions and methods for stabilizing protein-containing formulations” (Genentech, Inc., priority 2010, dated 2024)

Experiments:
[1] = in water at 20-25° C., cited from earlier work; for CMC Value (% w/v): cells printed without %
[2] = test system: anti-MUC16 monoclonal antibody; assay: Shaking-induced aggregation (150 rpm), percent monomer by size-exclusion chromatography; type: physicochemical; conditions: surfactant at one half of its CMC; shaking 150 rpm, 37° C., 64 hours; FIG. 1
Description: In this set of studies, a buffered solution (20 mM sodium phosphate buffer, pH 7.4) of monoclonal antibody was subjected to shaking on an orbital shaker at 150 rpm, at a controlled temperature of 37° C. These studies were carried out using a 3 ml solution fill of the antibody solution in a 6 cc glass vial. Samples were withdrawn at regular intervals and analyzed for percent monomer using size-exclusion chromatography. Various surfactants of the class of alkylglycosides were evaluated for their effectiveness to prevent protein aggregation during shaking. The surfactants were used at concentrations below their respective critical micelle concentration (CMC) or above their respective CMC.
The surfactants were employed at one half the concentration of their respective CMC values, i.e., 1.1 mM (0.035% w/v) n-decyl-β-D-glucopyranoside, 9 mM (0.24%) n-octyl-β-D-glucopyranoside and 0.04 mM (0.0035%) polysorbate 20.

[3] = test system: anti-CD11a monoclonal antibody; assay: Oxidation of Met256 on storage in surfactant-containing antibody solution; type: physicochemical; conditions: 0.1% w/v surfactant, pH 6.0, stored at 5° C. or 40° C. for 2 or 4 weeks; FIG. 15
Description: In a second experiment, oxidation of the Met256 amino acid residue in an anti-CD11a monoclonal antibody in solutions containing either n-decyl-β-D-glucopyranoside, n-octyl-β-D-glucopyranoside, or polysorbate 20 was evaluated. For this purpose, 3 ml of the buffered antibody solution (pH 6.0) containing 0.1% w/v of the surfactant was stored in 6 cc vials at either 5° C. or 40° C. for a period of either 2 or 4 weeks.

[4] = test system: Humanized anti-oxidized LDL monoclonal antibody; assay: Light-induced oxidation of tryptophan residues (LC/MS/MS tryptic peptide map); type: physicochemical; conditions: Light 24 hrs
Description: MAb samples and light treatment: Humanized anti-oxidized LDL monoclonal antibody, was produced at Genentech, Inc. from a CHO cell line. Three independent samples were prepared for photostability studies: 1) control sample, vial wrapped with aluminum foil; 2) test sample, vial light exposed (unwrapped); 3) test sample, vial light exposed (unwrapped) containing the specified non-ionic surfactant. Both control & light exposed samples were kept in a light box for 24 hrs. Light exposure following ICH guideline with following setting for a Atlas SUNTEST CPS+Light Box: Irradiance level=250 watts/square meter; Time set for 24 hours; Total UV dose=538 watt-hours/square meter; Total visible dose=1,320,000 lux-hours.
LC/MS/MS of tryptic MAb peptide map: Samples were digested with trypsin after reduction and alkylation. The resulting peptides were analyzed with a Thermo LTQ-Orbitrap mass spectrometer coupled with an Agilent 1200 capillary HPLC system. HPLC column: Jupiter 5 um C18 250×1.0 mm, flow rate: 70 uL/min, column oven temperature: 55° C. Solvent A: 0.1% TFA in water, B: 0.09% TFA in 90% ACN. Orbitrap setting: MS resolution 60000, MS/MS collected in data dependent mode, using LTQ.
The effect of light, and the protective effect of non-ionic surfactants, on the oxidation of tryptophan residues on an anti-oxidized LDL antibody was determined.

Compound	CMC Value [1] [mM]	CMC Value (w/v) [1] [% w/v]	further results
OC[C@H]1O[C@H](O[C@H]2[C@H](O)[C@@H](O)[C@H](OCCC3CCCCC3)O[C@@H]2CO)[C@H](O)[C@@H](O)[C@@H]1O [2-cyclohexyl-ethyl-β-D-maltoside]	120	5.4	
CC(CCO[C@@H]1O[C@H](CO)[C@@H](O)[C@H](O)[C@H]1O)C1CCCCC1 (stereo partly drawn) [3-cyclohexyl-1-butyl-β-D-glucoside]	1.8	0.058	
OC[C@H]1O[C@@H](OCCCC2CCCCC2)[C@H](O)[C@@H](O)[C@@H]1O [3-cyclohexyl-1-propyl-β-D-glucoside]	28	0.86	
OC[C@H]1O[C@H](O[C@H]2[C@H](O)[C@@H](O)[C@H](OCCCC3CCCCC3)O[C@@H]2CO)[C@H](O)[C@@H](O)[C@@H]1O [3-cyclohexyl-propyl-β-D-maltoside]	34.5	1.6	
OC[C@H]1O[C@H](O[C@H]2[C@H](O)[C@@H](O)[C@H](OCCCCC3CCCCC3)O[C@@H]2CO)[C@H](O)[C@@H](O)[C@@H]1O [4-cyclohexyl-butyl-β-D-maltoside]	7.6	0.37	
OC[C@H]1O[C@H](O[C@H]2[C@H](O)[C@@H](O)[C@H](OCCCCCC3CCCCC3)O[C@@H]2CO)[C@H](O)[C@@H](O)[C@@H]1O [5-cyclohexyl-pentyl-β-D-maltoside]	2.4	0.12	
OC[C@H]1O[C@H](O[C@H]2[C@H](O)[C@@H](O)[C@H](OCC3CCCCC3)O[C@@H]2CO)[C@H](O)[C@@H](O)[C@@H]1O [cyclohexyl-methyl-β-D-maltoside]	340	15	
CCCCCCCCCCO[C@@H]1O[C@H](CO)[C@@H](O)[C@H](O)[C@H]1O [n-decyl-β-D-glucopyranoside]	2.2	0.07	prevention of shaking-induced loss of percent monomer [2]: effective in preventing loss of monomer; increase in percent oxidized Met256 vs initial sample [3]: no significant increase
CCCCCCCCCCO[C@@H]1O[C@H](CO)[C@@H](O[C@H]2O[C@H](CO)[C@@H](O)[C@H](O)[C@H]2O)[C@H](O)[C@H]1O [n-decyl-β-D-maltopyranoside]	1.8	0.087	
CCCCCCCCCCCCO[C@@H]1O[C@H](CO)[C@@H](O)[C@H](O)[C@H]1O [n-dodecyl-β-D-glucopyranoside, reference compound]	0.19		% Oxidized Trp33 ([4]; 0.03 mM surfactant): 0.4%; % Oxidized Trp92 ([4]; 0.03 mM surfactant): 8.9%; CMC Value (% w/v) [1]: 0.0066 % w/v
CCCCCCCCCCCCO[C@@H]1O[C@H](CO)[C@@H](O[C@H]2O[C@H](CO)[C@@H](O)[C@H](O)[C@H]2O)[C@H](O)[C@H]1O [n-dodecyl-β-D-maltopyranoside, reference compound]	0.17		% Oxidized Trp33 ([4]; 0.03 mM surfactant): 0.0%; % Oxidized Trp92 ([4]; 0.03 mM surfactant): 10.6%; % Oxidized Trp33 ([4]; 0.39 mM surfactant): 0.1%; % Oxidized Trp92 ([4]; 0.39 mM surfactant): 2.7%; CMC Value (% w/v) [1]: 0.0087 % w/v
CCCCCCCO[C@@H]1O[C@H](CO)[C@@H](O)[C@H](O)[C@H]1O [n-heptyl-β-D-glucopyranoside]	70	1.9	
CCCCCCO[C@@H]1O[C@H](CO)[C@@H](O)[C@H](O)[C@H]1O [n-hexyl-β-D-glucopyranoside]	250	6.6	% Oxidized Trp33 ([4]; 0.39 mM surfactant): 0.3%; % Oxidized Trp92 ([4]; 0.39 mM surfactant): 4.9%; % Oxidized Trp33 ([4]; 300 mM surfactant): 0.0%; % Oxidized Trp92 ([4]; 300 mM surfactant): 1.6%
CCCCCCO[C@@H]1O[C@H](CO)[C@@H](O[C@H]2O[C@H](CO)[C@@H](O)[C@H](O)[C@H]2O)[C@H](O)[C@H]1O [n-hexyl-β-D-maltopyranoside]	210	8.9	% Oxidized Trp33 ([4]; 0.39 mM surfactant): 0.3%; % Oxidized Trp92 ([4]; 0.39 mM surfactant): 5.7%; % Oxidized Trp33 ([4]; 300 mM surfactant): 0.0%; % Oxidized Trp92 ([4]; 300 mM surfactant): 2.2%
CCCCCCCCCO[C@@H]1O[C@H](CO)[C@@H](O)[C@H](O)[C@H]1O [n-nonyl-β-D-glucopyranoside]	6.5	0.2	
CCCCCCCCCO[C@@H]1O[C@H](CO)[C@@H](O[C@H]2O[C@H](CO)[C@@H](O)[C@H](O)[C@H]2O)[C@H](O)[C@H]1O [n-nonyl-β-D-maltopyranoside]	6	0.28	
CCCCCCCCO[C@@H]1O[C@H](CO)[C@@H](O[C@H]2O[C@H](CO)[C@@H](O)[C@H](O)[C@H]2O)[C@H](O)[C@H]1O [n-octyl-β-D-maltopyranoside]	19.5	0.89	
